According to patent US20070123476A1, “Polyene antibiotic for controlling fungal growth in banana crops” (priority 2004, published 2007):
Values after ≈ are worked out from the molar mass of the structure shown.

Columns and labels:
[1] = test system: M. fijensis; experiment: Minimal inhibitory concentration on agar plates containing natamycin (agar diffusion method); format: cell-based, Mycosphaerella fijiensis; conditions: Pseudocercospora fijiensis; spores grown on agar plates with different natamycin concentrations; no visible growth
Protocol: (§1) The minimal inhibition concentration of these moulds or the minimal effective amount of the antifungal compound was determined using the agar diffusion method, which is well known in the art. Mould spores were grown on agar plates containing different concentrations of natamycin. The concentration of natamycin on which no visible growth could be observed was considered as the minimal inhibitory concentration (MIC) for that particular mould strain.

[2] = test system: Fusarium oxysporum f.sp; experiment: as above; format: cell-based, Fusarium oxysporum f. sp. cubense; conditions: spores grown on agar plates with different natamycin concentrations, no visible growth
Protocol: as §1

[3] = test system: most fungi; conditions: general background statement; cited from earlier work
[4] = cited from earlier work

In the case of `C[C@@H]1C/C=C/C=C/C=C/C=C/[C@H](O[C@@H]2O[C@H](C)[C@@H](O)[C@H](N)[C@@H]2O)C[C@@H]2O[C@](O)(C[C@@H](O)C[C@H]3O[C@@H]3/C=C/C(=O)O1)C[C@H](O)[C@H]2C(=O)O` [natamycin], the MIC [1] is given as 3 to 7 µg/mL (≈ 4.51 to 10.5 µM), the MIC [2] is given as 3 to 7 µg/mL (≈ 4.51 to 10.5 µM) and the “MIC (Minimal Inhibition Concentration) of most fungi” value [3] is given as “less than 20 ppm”. The solubility in water [4] was 30-50 ppm.
